Measurements taken from US20230348426A1, “OXOPYRROLIDINE FPR2 AGONISTS” (Bristol-Myers Squibb Company, priority 2020, published 2023).

Experiments:
human FPR1 = human FPR1 (Homo sapiens (Human), UniProt P21462); assay: FPR1 cyclic adenosine monophosphate (cAMP) assay; type: cell-based; settings: CHO cells overexpressing human FPR1; forskolin 10 µM; inhibition of cAMP production; read-out: hFPR1 cAMP EC50
How it was run: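 Human FPR1-expressing CHO cells were used at 4,000 per well, with compound at 0.020 nM–100 µM in 1% DMSO. Potency came from a 4-parameter logistic fit.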

human FPR2 = human FPR2 (Homo sapiens (Human), UniProt P25090); assay: FPR2 cyclic adenosine monophosphate (cAMP) assay; type: cell-based; settings: CHO cells overexpressing human FPR2; forskolin 5 µM; inhibition of cAMP production; read-out: hFPR2 cAMP2 EC50
How it was run: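 Inhibition of forskolin-driven (5 µM) cAMP, with 200 µM IBMX, measured in human FPR2-expressing CHO cells, 2,000 per well, 30 min at room temperature; compounds tested 0.020 nM to 100 µM in 1% DMSO. HTRF 665/590 ratio converted to cAMP via calibration curve, then 4-parameter fit.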

Sequence of human FPR2 (P25090 whole entry): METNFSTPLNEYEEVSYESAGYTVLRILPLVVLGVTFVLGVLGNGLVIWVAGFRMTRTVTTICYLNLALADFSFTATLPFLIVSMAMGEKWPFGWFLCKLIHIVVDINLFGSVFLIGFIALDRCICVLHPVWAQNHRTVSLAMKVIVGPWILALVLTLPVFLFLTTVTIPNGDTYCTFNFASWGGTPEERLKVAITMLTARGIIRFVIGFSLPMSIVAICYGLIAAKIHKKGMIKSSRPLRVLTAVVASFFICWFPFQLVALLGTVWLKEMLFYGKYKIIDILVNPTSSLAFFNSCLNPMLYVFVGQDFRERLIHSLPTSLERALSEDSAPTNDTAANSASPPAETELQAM
Sequence of human FPR1 (P21462 whole entry): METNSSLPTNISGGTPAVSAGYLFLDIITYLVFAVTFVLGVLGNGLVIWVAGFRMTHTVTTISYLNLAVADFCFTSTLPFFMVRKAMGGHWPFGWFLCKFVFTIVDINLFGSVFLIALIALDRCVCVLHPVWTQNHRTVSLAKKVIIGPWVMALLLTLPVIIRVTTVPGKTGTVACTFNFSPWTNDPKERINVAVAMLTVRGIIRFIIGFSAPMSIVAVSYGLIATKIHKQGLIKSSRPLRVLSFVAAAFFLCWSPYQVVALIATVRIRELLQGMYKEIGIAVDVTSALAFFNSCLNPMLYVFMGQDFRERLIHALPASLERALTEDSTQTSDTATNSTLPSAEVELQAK

| EC50 (human FPR1) | EC50 (human FPR2) | Structure (SMILES) |
| --- | --- | --- |
| 20 nM | 2 nM | COc1cc(F)c([C@@H]2CN(c3ccnn(CC(O)C(F)(F)F)c3=O)C(=O)[C@H]2NC(=O)c2ccc(OC(F)F)cc2)c(F)c1 (some centres unmarked) [Example 475] |
| 14 nM | 1.7 nM | COCC(CO)n1nccc(N2C[C@@H](c3c(F)cc(OC)cc3F)[C@H](NC(=O)c3ccc(OC(F)F)cc3)C2=O)c1=O (some centres unmarked) [Example 476] |
| 13 nM | 1 nM | COCC(CO)n1nccc(N2C[C@@H](c3c(F)cc(OC)cc3F)[C@H](NC(=O)c3ccc(Cl)cc3)C2=O)c1=O (some centres unmarked) [Example 477] |
| 1 nM | 5.9 nM | COc1cc(F)c([C@@H]2CN(c3c(C)ccn(C4CCOCC4)c3=O)C(=O)[C@H]2NC(=O)c2ccc(OC(F)(F)F)cc2)c(F)c1 [Example 478] |
| 5 nM | 9.4 nM | COc1cc(F)c([C@@H]2CN(c3c(C)ccn(C4CCOC4)c3=O)C(=O)[C@H]2NC(=O)c2ccc(OC(F)F)cc2)c(F)c1 (some centres unmarked) [Example 479] |
| 300 nM | 5.7 nM | COc1cc(F)c([C@@H]2CN(c3nccc(N4CCC(C)(O)C4)c3C(F)(F)F)C(=O)[C@H]2NC(=O)c2ccc(Cl)cc2)c(F)c1 (some centres unmarked) [Example 480] |
| 2200 nM | 1.2 nM | COc1cc(F)c([C@@H]2CN(c3nccc(N4CCN5CCCC5C4)c3C(F)(F)F)C(=O)[C@H]2NC(=O)c2ccc(Cl)cc2)c(F)c1 (some centres unmarked) [Example 481] |
| 1 nM | 2.5 nM | COCC(C(=O)N1CC2(COC2)C1)n1cccc(N2C[C@@H](c3c(F)cc(OC)cc3F)[C@H](NC(=O)c3ccc(OC(F)(F)F)cc3)C2=O)c1=O (some centres unmarked) [Example 482] |
| 16 nM | 5.6 nM | COc1cc(F)c([C@@H]2CN(c3c(C)ccn(CC(O)C(F)(F)F)c3=O)C(=O)[C@H]2NC(=O)c2ccc(Cl)cc2)c(F)c1 (some centres unmarked) [Example 483] |
| 420 nM | 3 nM | COCCN1CCCC(N2C[C@@H](c3c(F)cc(OC)cc3F)[C@H](NC(=O)c3ccc(OC(F)(F)F)cc3)C2=O)C1=O (some centres unmarked) [Example 484] |
| 2 nM | 1.7 nM | COCC(C(=O)N1CCCC1)n1cccc(N2C[C@@H](c3c(F)cc(OC)cc3F)[C@H](NC(=O)c3ccc(OC(F)F)cc3)C2=O)c1=O (some centres unmarked) [Example 485] |
| 36 nM | 4.3 nM | COc1cc(F)c([C@@H]2CN(c3cncn(CC(O)C(F)(F)F)c3=O)C(=O)[C@H]2NC(=O)c2ccc(Cl)cc2)c(F)c1 (some centres unmarked) [Example 486] |
| 720 nM | 1.9 nM | COc1cc(F)c([C@@H]2CN(c3cncn(CCC(F)(F)F)c3=O)C(=O)[C@H]2NC(=O)c2ccc(OC(F)F)cc2)c(F)c1 [Example 487] |
| 790 nM | 2.6 nM | COc1cc(F)c([C@@H]2CN(c3cncn(CCO)c3=O)C(=O)[C@H]2NC(=O)c2ccc(OC(F)F)cc2)c(F)c1 [Example 488] |
| 5 nM | 0.7 nM | COc1cc(F)c([C@@H]2CN(c3c(C)ccn(CC(O)C(F)(F)F)c3=O)C(=O)[C@H]2NC(=O)c2ccc(OC(F)F)cc2)c(F)c1 (some centres unmarked) [Example 489] |
| 1 nM | 1 nM | COc1cc(F)c([C@@H]2CN(c3c(C)ccn(C(F)(F)CO)c3=O)C(=O)[C@H]2NC(=O)c2ccc(OC(F)(F)F)cc2)c(F)c1 [Example 490] |
| > 5000 nM | 1.8 nM | COCCN1CCC(c2cc(OC)cc(N3C(=O)[C@@H](NC(=O)c4ccc(OC(F)F)cc4)[C@H](c4c(F)cc(OC)cc4F)[C@@H]3C)n2)CC1 [Example 491] |
| > 5000 nM | 8.7 nM | COc1cc(C2CCN(CCF)CC2)nc(N2C[C@@H](c3c(F)cc(OC)cc3F)[C@H](NC(=O)c3ccc(OC(F)F)cc3)C2=O)c1 [Example 492] |
| 270 nM | 2.2 nM | COc1cc(F)c([C@@H]2CN(c3cccn4cc(C)nc34)C(=O)[C@H]2NC(=O)c2ccc(Cl)cc2)c(F)c1 [Example 493] |
| 440 nM | 3.4 nM | COc1cc(F)c([C@@H]2CN(c3cccn4cc(CO)nc34)C(=O)[C@H]2NC(=O)c2ccc(Cl)cc2)c(F)c1 [Example 494] |
| 860 nM | 1.6 nM | COc1cc(F)c([C@@H]2CN(c3cccn4cc(C5CC5)nc34)C(=O)[C@H]2NC(=O)c2ccc(Cl)cc2)c(F)c1 [Example 495] |
| 1100 nM | 3 nM | COc1cc(F)c([C@@H]2CN(c3cccn4cc(C(C)C)nc34)C(=O)[C@H]2NC(=O)c2ccc(Cl)cc2)c(F)c1 [Example 496] |
| 720 nM | 1.2 nM | COc1cc(F)c([C@@H]2CN(c3cccn4cc(C(F)(F)F)nc34)C(=O)[C@H]2NC(=O)c2ccc(Cl)cc2)c(F)c1 [Example 497] |
| > 5000 nM | 1.8 nM | COc1cc(C2CCN(C)CC2)nc(N2C[C@@H](c3c(F)cc(OC)cc3F)[C@H](NC(=O)c3ccc(OC(F)F)cc3)C2=O)c1 [Example 498] |
| 60 nM | 29 nM | COc1cc(F)c([C@@H]2CN(c3cc(OCC4CCCO4)ncn3)C(=O)[C@H]2NC(=O)c2ccc(Cl)cc2)c(F)c1 (some centres unmarked) [Example 499] |

| EC50 (human FPR1) | EC50 (human FPR2) | Structure (SMILES) |
| --- | --- | --- |
| 710 nM | 2.2 nM | COc1cc(F)c([C@@H]2CN(c3cccc(C4=CNCCC4)n3)C(=O)[C@H]2NC(=O)c2ccc(OC(F)F)cc2)c(F)c1 [Example 500] |
| 2500 nM | 1.6 nM | COc1cc(F)c([C@@H]2CN(c3cccc(C4CCCN(CCO)C4)n3)C(=O)[C@H]2NC(=O)c2ccc(OC(F)F)cc2)c(F)c1 (some centres unmarked) [Example 501] |
| 900 nM | 7.7 nM | COc1cc(F)c([C@@H]2CN(c3cccc(C4CCCN(CCO)C4)n3)C(=O)[C@H]2NC(=O)c2ccc(OC(F)F)cc2)c(F)c1 (some centres unmarked) [Example 502] |
| 3500 nM | 4.3 nM | COc1cc(F)c([C@H]2[C@H](NC(=O)c3ccc(Cl)cc3)C(=O)N(c3cncn(CC(F)F)c3=O)[C@@H]2C)c(F)c1 [Example 503] |
| 3300 nM | 2.2 nM | COc1cc(C2CCN(CCO)CC2)nc(N2C(=O)[C@@H](NC(=O)c3ccc(OC(F)F)cc3)[C@H](c3c(F)cc(OC)cc3F)[C@@H]2C)c1 [Example 504] |
| 3400 nM | 100 nM | COc1cc(F)c([C@H]2[C@H](NC(=O)c3ccc(OC(F)F)cc3)C(=O)N(c3cccc(P(C)(C)=O)n3)[C@H]2C)c(F)c1 [Example 505] |
| 68 nM | 0.8 nM | COc1cc(F)c([C@@H]2CN(c3c(C)ccn(C4CCNCC4)c3=O)C(=O)[C@H]2NC(=O)c2ccc(Cl)cc2)c(F)c1 [Example 506] |
| 150 nM | 2.3 nM | COc1cc(F)c([C@@H]2CN(c3c(C)ccn(C4CCN(C)C4)c3=O)C(=O)[C@H]2NC(=O)c2ccc(OC(F)F)cc2)c(F)c1 (some centres unmarked) [Example 507] |
| 110 nM | 6.4 nM | COc1cc(F)c([C@@H]2CN(c3c(C)ccn(C4CCN(C)C4)c3=O)C(=O)[C@H]2NC(=O)c2ccc(OC(F)F)cc2)c(F)c1 (some centres unmarked) [Example 508] |
| 79 nM | 41 nM | COc1cc(F)c([C@@H]2CN(c3cc(OCC4CCOC4)ncn3)C(=O)[C@H]2NC(=O)c2ccc(Cl)cc2)c(F)c1 (some centres unmarked) [Example 509] |
| 390 nM | 66 nM | COc1cc(F)c([C@@H]2CN(c3cccc(P(C)(C)=O)n3)C(=O)[C@H]2NC(=O)c2ccc(Cl)cc2)c(F)c1 [Example 511] |
| 2100 nM | 3.7 nM | COc1cc(F)c([C@H]2[C@H](NC(=O)c3ccc(OC(F)F)cc3)C(=O)N(c3cccc(C4CCCN(C)C4)n3)[C@H]2C)c(F)c1 (some centres unmarked) [Example 512] |
| 1500 nM | 2.4 nM | COc1cc(F)c([C@H]2[C@H](NC(=O)c3ccc(OC(F)F)cc3)C(=O)N(c3cccc(C4CCCN(C)C4)n3)[C@H]2C)c(F)c1 (some centres unmarked) [Example 513] |
| 270 nM | 2.6 nM | COc1cc(F)c([C@@H]2CN(c3cncn(C4CCN(C)C4)c3=O)C(=O)[C@H]2NC(=O)c2ccc(Cl)cc2)c(F)c1 (some centres unmarked) [Example 514] |
| 2200 nM | 2.1 nM | COc1cc(F)c([C@H]2[C@H](NC(=O)c3ccc(OC(F)F)cc3)C(=O)N(c3cccc(C4CCCN(CCO)C4)n3)[C@H]2C)c(F)c1 (some centres unmarked) [Example 515] |
| 1700 nM | 1.3 nM | COc1cc(F)c([C@H]2[C@H](NC(=O)c3ccc(OC(F)F)cc3)C(=O)N(c3cccc(C4CCCN(CCO)C4)n3)[C@H]2C)c(F)c1 (some centres unmarked) [Example 516] |
| 1800 nM | 2.8 nM | COc1cc(F)c([C@@H]2CN(c3cncn(C(CO)C(F)(F)F)c3=O)C(=O)[C@H]2NC(=O)c2ccc(Cl)cc2)c(F)c1 (some centres unmarked) [Example 517] |
| 3300 nM | 2 nM | COc1cc(F)c([C@@H]2CN(c3cncn(C(CO)C(F)(F)F)c3=O)C(=O)[C@H]2NC(=O)c2ccc(Cl)cc2)c(F)c1 (some centres unmarked) [Example 518] |
| 480 nM | 3.1 nM | COc1cc(F)c([C@@H]2CN(c3cccn4ccnc34)C(=O)[C@H]2NC(=O)c2ccc(Cl)cc2)c(F)c1 [Example 519] |
| 1300 nM | 4.9 nM | CCn1cnc(C)c(N2C[C@@H](c3c(F)cc(OC)cc3F)[C@H](NC(=O)c3ccc(Cl)cc3)C2=O)c1=O [Example 520] |
| 330 nM | 9 nM | COCCn1cnc(C)c(N2C[C@@H](c3c(F)cc(OC)cc3F)[C@H](NC(=O)c3ccc(Cl)cc3)C2=O)c1=O [Example 521] |
| > 5000 nM | 5.4 nM | COc1cc(F)c([C@@H]2CN(c3c(C)ncn(CC4(C)COC4)c3=O)C(=O)[C@H]2NC(=O)c2ccc(Cl)cc2)c(F)c1 [Example 522] |
| 3600 nM | 1.4 nM | COc1cc(F)c([C@H]2[C@H](NC(=O)c3ccc(OC(F)F)cc3)C(=O)N(c3cccc(C4CCN(C)CC4)n3)[C@H]2C)c(F)c1 [Example 523] |
| 1400 nM | 0.8 nM | COc1cc(F)c([C@H]2[C@H](NC(=O)c3ccc(OC(F)F)cc3)C(=O)N(c3cccc(C4CCN(CCO)CC4)n3)[C@H]2C)c(F)c1 [Example 524] |
